Measurements published in ChEMBL document CHEMBL1155981, “Molecular modeling studies to predict the possible binding modes of endomorphin analogs in mu opioid receptor” (Bioorg Med Chem Lett, 2009).
Peptide text beside a SMILES is read from it. * marks the point of attachment. NHBn = c1ccc(CN*)cc1

What follows are compounds tested against Mu-type opioid receptor (Homo sapiens, UniProt P35372) (assay: Binding affinity to human mu opioid receptor).
Mu-type opioid receptor, sequence (P35372 whole entry): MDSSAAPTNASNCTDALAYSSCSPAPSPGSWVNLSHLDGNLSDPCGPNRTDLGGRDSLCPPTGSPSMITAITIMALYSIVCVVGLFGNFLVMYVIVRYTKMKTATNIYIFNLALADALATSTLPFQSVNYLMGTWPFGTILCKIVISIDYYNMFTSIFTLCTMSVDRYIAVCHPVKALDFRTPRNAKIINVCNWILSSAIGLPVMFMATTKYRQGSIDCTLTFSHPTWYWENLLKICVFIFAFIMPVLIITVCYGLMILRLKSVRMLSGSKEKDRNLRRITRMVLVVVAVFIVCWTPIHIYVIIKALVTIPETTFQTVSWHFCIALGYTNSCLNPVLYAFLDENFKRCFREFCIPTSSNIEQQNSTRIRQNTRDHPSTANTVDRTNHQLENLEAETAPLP

Compound | Ki
N[C@@H](Cc1ccc(O)cc1)C(=O)N1CCC[C@H]1C(=O)N[C@@H](Cc1c[nH]c2ccccc12)C(=O)NCC(=O)NCc1ccccc1 (H-YPWG-NHBn) | 56.2 nM
CC(C)[C@@H](NC(=O)[C@H](Cc1c[nH]c2ccccc12)NC(=O)[C@@H]1CCCN1C(=O)[C@@H](N)Cc1ccc(O)cc1)C(=O)NCc1ccccc1 | 2.32 nM
CC(C)[C@@H](NC(=O)[C@H](Cc1ccccc1)NC(=O)[C@@H]1CCCN1C(=O)[C@@H](N)Cc1ccc(O)cc1)C(=O)NCc1ccccc1 | 4.97 nM
C[C@@H](NC(=O)[C@H](Cc1c[nH]c2ccccc12)NC(=O)[C@@H]1CCCN1C(=O)[C@@H](N)Cc1ccc(O)cc1)C(=O)NCc1ccccc1 | 4.56 nM
C[C@H](NC(=O)[C@H](Cc1ccccc1)NC(=O)[C@@H]1CCCN1C(=O)[C@@H](N)Cc1ccc(O)cc1)C(=O)NCc1ccccc1 | 122 nM
C[C@@H](NC(=O)[C@H](Cc1ccccc1)NC(=O)[C@@H]1CCCN1C(=O)[C@@H](N)Cc1ccc(O)cc1)C(=O)NCc1ccccc1 | 8.67 nM
